Measured values published in US20240016763A1, “COENZYME Q10 MICROEMULSION, PREPARATION METHOD THEREFOR AND USE THEREOF” (ZHEJIANG NHU CO., LTD., priority 2021, published 2024).

Key:
[1] = Test of particle size DV(90) (laser particle size distribution); format: physicochemical; details: sample diluted 1:20 with distilled water, 25° C.
Description: The microemulsion sample is diluted with distilled water at a ratio of 1:20 and gently shaken to form a clear microemulsion. Then, the particle size distribution of the emulsion is measured by MASTERSIZER 3000 laser particle size distribution instrument (purchased from Malvern Company, UK) at 25° C.

[2] = Test of stability: irradiation at 4500 Lx light intensity, 15 days; format: physicochemical; details: 4500 Lx illumination
Excerpt: (§1) The coenzyme Q10 microemulsion is quickly poured into a transparency meter barrel, and an inspector observes vertically downward from the barrel mouth of the transparency meter, and slowly releases the microemulsion just to a height of the microemulsion where the type at the bottom can be clearly recognized. The height of the microemulsion is the transparency of the coenzyme Q10 microemulsion, which is generally more than 30 cm to be transparent. The measurement is repeated for 3 times, and the results are averaged.
(§2) Microemulsion samples and coenzyme Q10 raw material are placed in the conditions of irradiation at 4500 Lx light intensity, oxygen filling (25° C.) and 60° C. (incubator) for 15 days, respectively, for experiments. In these experiments, samples are taken on day 0, day 5, day 10 and day 15, respectively, and the content of coenzyme Q10 is determined by HPLC, to investigate the effects of light, oxygen and temperature on the labeled content (%) of coenzyme Q10 and the appearance.
(§3) Refer to the test method of coenzyme Q10 content in Chinese Pharmacopoeia (2015 edition).

[3] = Test of stability: oxygen filling (25° C.), 15 days; format: physicochemical
Excerpt: as §1, §2, §3

[4] = Test of stability: 60° C. (incubator), 15 days; format: physicochemical
Excerpt: as §1, §2, §3

[5] = Test of bioavailability: plasma concentration in rats after intragastric administration; format: in vivo; details: mean±SD, n=10
Description: Preparation of coenzyme Q10 raw material sample solution: 0.1 g of coenzyme Q10 crystal is accurately weighed and dissolved in 100 mL of diethylene glycol monoethyl ether solution, as a raw material sample.
Microemulsion samples of Examples 1 to 6, coded as Sample 1, Sample 2, Sample 3, Sample 4, Sample 5 and Sample 6, are selected to conduct animal experiments.
Experimental conditions: the temperature of the laboratory feeding environment is 25±3° C., the relative humidity is 55% to 70%, the animals are free to drink water and eat food (deionized water and standard feed) every day, and they are fasted for 12 hours before the experiment but drink water freely.
Experimental animals and grouping: seventy 8-week-old healthy SPF-grade male SD rats, provided by Hubei Experimental Animal Research Center, weighing from 220 g to 230 g.
The rats are operated according to the international experimental guidelines for experimental animals, and every 10 rats fasted for 12 hours are divided into one group by a completely random design, totally seven groups.
Oral administration, sample collection and treatment: the rats are intragastrically administered with the same dose (15 mg/kg: coenzyme Q10 content) of microemulsion samples 1 to 6 and raw material samples, respectively. After administration, plasma is collected at 5 minutes, 15 minutes, 30 minutes, 1 hour, 3 hours, 6 hours, 10 hours and 15 hours, respectively, and put into anticoagulant centrifuge tubes containing heparin, mixed uniformly and then centrifuged to separate the plasma. After the treatment, the plasma concentration is detected by HPLC.
According to the results of the plasma concentration, statistical fitting analysis is carried out by using statistical analysis software, to calculate the plasma concentration. The results is expressed as mean value±standard deviation.

COC1=C(OC)C(=O)C(C/C=C(\C)CC/C=C(\C)CC/C=C(\C)CC/C=C(\C)CC/C=C(\C)CC/C=C(\C)CC/C=C(\C)CC/C=C(\C)CC/C=C(\C)CCC=C(C)C)=C(C)C1=O [coenzyme Q10 raw material, coenzyme Q10]
DV(90) [1]: 75000 nm | Labeled content of coenzyme Q10 ([2]; 0 day): 99% | Labeled content of coenzyme Q10 ([2]; 5 days): 95% | Labeled content of coenzyme Q10 ([2]; 10 days): 93% | Labeled content of coenzyme Q10 ([2]; 15 days): 88% | Labeled content of coenzyme Q10 ([3]; 0 day): 99% | Labeled content of coenzyme Q10 ([3]; 5 days): 97% | Labeled content of coenzyme Q10 ([3]; 10 days): 95% | Labeled content of coenzyme Q10 ([3]; 15 days): 90% | Labeled content of coenzyme Q10 ([4]; 0 day): 99% | Labeled content of coenzyme Q10 ([4]; 5 days): 97% | Labeled content of coenzyme Q10 ([4]; 10 days): 95% | Labeled content of coenzyme Q10 ([4]; 15 days): 92% | average plasma concentration ([5]; intragastric 15 mg/kg coenzyme Q10, 5 minutes): 12.1 µg/L | average plasma concentration ([5]; intragastric 15 mg/kg coenzyme Q10, 15 minutes): 21.3 µg/L | average plasma concentration ([5]; intragastric 15 mg/kg coenzyme Q10, 30 minutes): 49.3 µg/L | average plasma concentration ([5]; intragastric 15 mg/kg coenzyme Q10, 1 hour): 93.0 µg/L | average plasma concentration ([5]; intragastric 15 mg/kg coenzyme Q10, 3 hours): 110.4 µg/L | average plasma concentration ([5]; intragastric 15 mg/kg coenzyme Q10, 6 hours): 83.3 µg/L | average plasma concentration ([5]; intragastric 15 mg/kg coenzyme Q10, 10 hours): 37.6 µg/L | average plasma concentration ([5]; intragastric 15 mg/kg coenzyme Q10, 15 hours): 11.5 µg/L
